Data published in patent publication EP1242382B1, “TRICYCLIC PROTEIN KINASE INHIBITORS” (Wyeth, priority 1999, dated 2001).

Columns and labels:
HT-29 cells = assay: Cell proliferation test procedure, HT-29 cells (MTS); type: cell-based; conditions: Homo sapiens, read-out: HT-29 prolif %Inh
Method: HT-29 cells: Compound effectiveness at inhibiting cell proliferation on plastic is performed in a 96-well format by plating 5000 cells per well in appropriate medium on day one, followed by compound addition on day 2 in serial two-fold dilutions. On day five, compound is washed away and medium containing MTS reagent (Promega) is added. Relative cell number is determined by reading the absorbance at 490nm of a dye produced by an NAD-dependent cellular enzymatic reaction.

[1] = tested on: Rat2 fibroblasts stably transformed with v-Src/Hu c-Src fusion gene; assay: Anchorage independent Src-transformed fibroblast proliferation test procedure; type: cell-based; conditions: Rattus norvegicus, read-out: Src TF prolif %Inh
Source text: Anchorage Independent Src-transformed Fibroblast Proliferation Test Procedure: Rat2 fibroblasts stably transformed with a plasmid containing a CMV promotor controlled v-Src/Hu c-Src fusion gene in which the catalytic domain of human c-Src is inserted in place of the v-Src catalytic domain in the v-Src gene are used for the measurement of src dependent suspension growth.

Raf-1 (c-Raf) = target: T1, Raf-1 (c-Raf) (Homo sapiens, UniProt P04049); assay: Raf1 kinase cascade assay procedure; type: biochemical
T1 construct: Sf9 insect cell lysate containing full length 6his-tagged recombinant human c-Raf; host or cells: c-Raf: Sf9 insect cell lysate; MEK1 and MAPK: E. coli
Method: (Specific Activity: ~200U/ml). Human Non-active Mek-1-GST and human GST-MAP kinase (recombinant proteins produced in E. coli).
• 1. Assay Dilution Buffer (ADB): 20mM MOPS, pH 7.2, 25mM β-glycerol phosphate, 5mM EGTA, 1mM sodium orthovanadate, 1mM dithiothreitol. • 2. Magnesium/ATP Cocktail: 500µM cold ATP and 75 mM magnesium chloride in ADB. • 4. Active Kinase: Human Active c-Raf: Use at 0.4U per assay point • 5. Non-active GST-MEK1: Use at 0.1µg per assay point. • 6. Non-active GST-p42 MAP Kinase: Use at 1.0 µg per assay point
• 1. TBST - Tris (50 mM, pH 7.5), NaCl (150 mM), Tween-20 (0.05 %) • 2. Superblock (Pierce) • 3. Anti-GST Ab (Pharmacia) • 4. Anti-Phospho MAPK (Sigma) • 5. Anti-Mouse Ab / Europium conjugate (Wallac)
First Stage: c-Raf Dependent Activation of GST-MEK and GST-MAPK • 1. Add […] of ADB per assay (i.e. per well of a 96 well plate) • 2. Add 10 ml of 0.5 mM cold ATP and 75 mM magnesium chloride in ADB. • 3. Add 2 ml of c-Raf (0.4U/assay), in conjunction with 1.6ml non-active MEK1 ([…]). • 4. Add 4 ml of non-active GST-p42 MAP Kinase (1.0 mg/assay). • 5. Incubate for 60 minutes at 30°C in a shaking incubator. • 6. Transfer this mixture to an anti-GST Ab coated 96 well plate (Nunc Immunosorb plates coated o/n with a-GST, then blocked with Pierce Superblock). • 7. Incubate for 60 minutes at 30°C in a shaking incubator Wash 3X with TBST, add Anti-Phospho MAPK (Sigma) (1:3000) • 6. Incubate for 60 minutes at 30°C in a shaking incubator • 7. Wash 3X with TBST, add Anti-Mouse Ab / Europium conjugate (Wallac) (1:500) • 8. Incubate for 60 minutes at 30°C in a shaking incubator • 9. Wash 3X with TBST, Read plates in Wallac Victor model Plate Reader. • 10. Collect data analyze in Excel for single point and IC50 determinations.
Typically Raf-1 assay is run at compound concentrations from 10 µM to 1 nM in half log dilutions. (% inhibition is determined for each compound concentration).

[2] = target: T2, Kinase insert Domain containing Receptor (KDR; the catalytic domain of the VEGF receptor) (Homo sapiens, UniProt P35968); assay: Inhibition of Kinase insert Domain containing Receptor (KDR); type: biochemical; conditions: read-out: KDR %Inh (10 µM)
T2 construct: KDR; the catalytic domain of the VEGF receptor
Method: KDR protein is mixed, in the presence or absence of a inhibitor compound, with a substrate peptide to be phosphorylated (a copolymer of glutamic acid and tyrosine, E:Y :: 4:1) and other cofactors such as Mg^++ and sodium vanadate (a protein tyrosine phosphatase inhibitor) in an appropriate buffer to maintain pH (7.2). ATP and a radioactive tracer (either P^32- or P^33-labeled ATP) is then added to initiate phosphorylation. After incubation, the radioactive phosphate associated with the acid-insoluble fraction of the test procedure mixture is then quantified as reflection of substrate phosphorylation.

p60^c-src (Src) = target: T3, p60^c-src (Src) (Homo sapiens, UniProt P12931); assay: Src kinase test procedure (Elisa format); type: biochemical; conditions: dose 10 µM; read-out: Src %Inh
T3 construct: purchased Upstate Biotechnologies
Method: Inhibitors of p60^c-src (partially purified preparation purchased from Upstate Biotechnologies) tyrosine kinase activity are analyzed in an Elisa format. […] HRP-conjugated anti-phosphotyrosine is used to detect phosphorylated peptide via a color reaction. Conditions recommended by the manufacturer are employed.
Reaction conditions: Five microliter aliquots of each compound prepared fresh at the time of the assay are added as a solution in 10mM HEPES pH 7.5, 10% DMSO to the reaction well. Thirty-five microliters of reaction mix containing Src, buffer and peptide/bovine serum albumin mix are added to the compound wells and incubated at 30°C for 10 minutes (reaction buffer: 50mM TrisHCl pH 7.5, 10mM MgCl2, 0.1mM EGTA, 0.5mM Na3VO4). The reaction is started by addition of 10 microliters of ATP, incubated at 30°C for 1 hour, and stopped by addition of 20 microliters of 0.5M EDTA. The reaction mixture with the phosphorylated peptide is then transferred to a streptavidin-coated microtiter plate (provided in the kit) and allowed to bind for 20 minutes. Unbound peptide and reaction mixture is decanted and the plate is washed with PBS six times. Horseradish peroxidase-conjugated phosphotyrosine antibody supplied in the kit is incubated with the plate for one hour, then decanted. The plate is again washed with PBS six times.

[3] = tested on: Human adenocarcinoma cell line LoVo; assay: Cell based screen for inhibitors of Raf kinase, quantitative assay; conditions: 96 h, four days incubation
Method: (§1) • Cell Lines: Human adenocarcinoma cell line LoVo which is known to be growth inhibited by low nM concentrations of a reference standard inhibitor of Ras and human adenocarcinoma cell line CaCo-2, which is known to be growth resistant to the same reference compound. • Cell Media : RPMI 1640 with 10% Fetal Bovine Serum supplemented with L-glutamine and Pennicilin/Streptomycin. • Compounds: Supplied usually as a 10 mM stock in 100% DMSO. • Normal Saline: 150 mM NaCl • Trichloroacetic Acid (TCA): 50% (w/v) in water • Sulforhodamine B (SRB): 0.4% (w/v) in 1% Acetic Acid • Tris Base: 10 mM in water
(§2) Cells are plated at 2000 cells per well for cell line LoVo and 1500 cells for cell line CaCo-2 in 96 well plates. Cells are plated in media (200 µl) and allowed to adhere overnight at 37°C. At 24 hours post plating, compounds are added directly at a volume of 0.5 µl. For the qualitative screen (compounds screened at 25 µM) compound is added directly to cells. For the quantitative screen, compound is first diluted in DMSO to generate concentrations of compound or reference standard of: 1, 5, 10 and 25 µM. It is advisable to make the dilutions in an identical 96 well plate so that compounds can be added using a multichannel micropipettor set at 0.5 µl. The cells are then incubated for four days after which the media is removed using a 12 well manifold by first tipping the plate forward at a 45 degree angle and then inserting the manifold in an upright orientation to prevent the tips of the manifold from disturbing cells at the bottom of the plate. 200 µl of normal saline is then added to each well using an 8 well multichannel pipettor, followed by the careful addition of 50 µl of 50% TCA. The plates are then incubated for 2 hours at 4°C, after which the supernatant is removed using the same technique as above and the plated washed twice with 200 µl water. The plates are then air dried and 50 µl of SRB stock solution is carefully added so that the entire bottom of each well is covered. This again can be used using an 8 well multichannel pipettor. The SRB is incubated with fixed cells for 15 minutes at room temperature after which the SRB is removed with the manifold as described above and the plates washed twice with 350 µl of 1% acetic acid per well each time. The plates are then air dried after which the bound SRB is released from protein by the addition of 200 µl of Tris base. Resolubilizing the SRB is aided by placing the plates on a rotator for 15-30 minutes. The absorbance of each well is determined at 550 or 562 nm using a microtiter plate reader.
(§3) Each compound or dilution thereof is performed in triplicate. Outliers are identified by visual inspection of the data. Each plate should have a "0" control (vehicle only).
(§4) Quantitative Assay: A standard curve is constructed by plotting the concentration of compound against the average absorbance calculated at that concentration. […] Multiple entries for a given compound indicate that it is tested multiple times.

[4] = tested on: human adenocarcinoma cell line CaCo-2; assay: as above; conditions: Caco-2, 96 h, four days incubation
Method: as §1, §2, §3, §4

BxPC3 = assay: as above; conditions: Homo sapiens, BXPC-3
LnCAP = assay: as above; conditions: Homo sapiens

T1 sequence (P04049 whole entry): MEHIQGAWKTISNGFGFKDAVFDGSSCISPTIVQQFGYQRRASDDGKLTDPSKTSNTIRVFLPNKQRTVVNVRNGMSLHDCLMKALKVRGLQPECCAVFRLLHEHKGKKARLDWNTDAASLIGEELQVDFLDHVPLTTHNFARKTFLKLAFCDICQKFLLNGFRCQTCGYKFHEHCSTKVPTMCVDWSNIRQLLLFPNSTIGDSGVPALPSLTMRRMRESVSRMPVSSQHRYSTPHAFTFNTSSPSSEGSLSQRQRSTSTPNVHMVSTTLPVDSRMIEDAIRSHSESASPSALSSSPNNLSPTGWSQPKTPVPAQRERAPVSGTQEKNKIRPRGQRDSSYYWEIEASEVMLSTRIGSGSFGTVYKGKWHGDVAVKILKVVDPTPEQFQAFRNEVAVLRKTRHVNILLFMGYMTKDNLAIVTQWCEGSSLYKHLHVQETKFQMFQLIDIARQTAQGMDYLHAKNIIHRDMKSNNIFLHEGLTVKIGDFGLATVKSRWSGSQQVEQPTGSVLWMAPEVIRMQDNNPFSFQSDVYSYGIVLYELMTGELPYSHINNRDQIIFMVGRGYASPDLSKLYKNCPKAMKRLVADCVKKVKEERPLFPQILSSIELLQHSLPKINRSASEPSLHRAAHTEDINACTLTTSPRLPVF
T2 sequence (P35968 834-1162 limits assumed): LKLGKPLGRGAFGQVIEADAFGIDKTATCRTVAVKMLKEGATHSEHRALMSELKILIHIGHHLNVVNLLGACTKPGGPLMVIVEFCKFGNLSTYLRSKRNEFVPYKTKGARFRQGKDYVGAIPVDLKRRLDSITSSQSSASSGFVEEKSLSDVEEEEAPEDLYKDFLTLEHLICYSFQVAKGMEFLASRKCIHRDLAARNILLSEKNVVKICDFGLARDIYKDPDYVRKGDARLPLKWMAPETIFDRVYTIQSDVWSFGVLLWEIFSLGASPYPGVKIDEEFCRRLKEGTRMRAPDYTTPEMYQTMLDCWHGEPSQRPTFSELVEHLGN
T3 sequence (P12931 whole entry): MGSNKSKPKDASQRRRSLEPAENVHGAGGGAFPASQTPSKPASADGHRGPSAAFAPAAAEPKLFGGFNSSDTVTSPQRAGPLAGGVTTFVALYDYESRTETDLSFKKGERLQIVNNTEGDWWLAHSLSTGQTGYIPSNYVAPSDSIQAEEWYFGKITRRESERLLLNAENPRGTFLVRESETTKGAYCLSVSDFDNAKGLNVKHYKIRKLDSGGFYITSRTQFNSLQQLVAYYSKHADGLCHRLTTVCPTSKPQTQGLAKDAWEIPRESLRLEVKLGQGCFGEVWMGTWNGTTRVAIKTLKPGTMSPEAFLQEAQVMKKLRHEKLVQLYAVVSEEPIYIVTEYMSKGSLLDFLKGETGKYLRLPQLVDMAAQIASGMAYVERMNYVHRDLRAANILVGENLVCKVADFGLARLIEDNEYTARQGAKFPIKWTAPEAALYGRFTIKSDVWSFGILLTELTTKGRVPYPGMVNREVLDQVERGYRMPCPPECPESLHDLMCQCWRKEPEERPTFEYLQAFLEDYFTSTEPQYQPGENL

Row | Compound | IC50 (Raf-1 (c-Raf)) [µM] | IC50 [3] [µM] | IC50 [4] [µM] | IC50 (BxPC3) [µM] | IC50 (LnCAP) [µM] | inhibition at 10 µM (HT-29 cells) [%] | other results
1 | N#Cc1cnc2c(c1Nc1ccc(Cl)cc1Br)C=C1N=CN=C1C2 [Example 38, 8-(2-Bromo-4-chlorophenylamino)imidazo[4,5-g]quinoline-7-carbonitrile] |  |  |  |  |  | 25 | inhibition at 10 µM [1]: 0%
2 | COc1cc(Nc2c(C#N)cnc3c2C=C2N=CN=C2C3)c(Br)cc1Cl [Example 39, 8-(2-Bromo-4-chloro-5-methoxyphenylamino)imidazo[4,5-g]quinoline-7-carbonitrile] | 0.9 |  |  |  |  | 35 | inhibition at 10 µM [1]: 25%
3 | COc1cc(Nc2c(C#N)cnc3c2C=C2N=CN=C2C3)cc(OC)c1OC [Example 42, 8-(3,4,5-Trimethoxyanilino)imidazo[4,5-g]quinoline-7-carbonitrile] |  |  |  |  |  | 0 | inhibition at 0.22 µM ([1]; @ dose 0.22 µM): 50%
4 | Cc1ccc(Nc2c(C#N)cnc3c2sc2ccccc23)cc1O [Example 70, 4-(3-Hydroxy-4-methylphenylamino)benzo[4,5]thieno[3,2-b]pyridine-3-carbonitrile] |  |  |  |  |  |  | inhibition at 10 µM [2]: 22%
5 | Cc1ccc(Nc2c(C#N)cnc3c2oc2ccccc23)cc1O [Example 87, 4-(3-Hydroxy-4-methylphenylamino)benzo[4,5]furo[3,2-b]pyridine-3-carbonitrile] |  |  |  |  |  |  | inhibition at 10 µM [2]: 32%; inhibition at 10 µM (p60^c-src (Src)): 0%

The next lines start with results.

Row | IC50 (Raf-1 (c-Raf)) [µM] | IC50 [3] [µM] | IC50 [4] [µM] | IC50 (BxPC3) [µM] | IC50 (LnCAP) [µM] | Compound | inhibition at 10 µM (HT-29 cells) [%] | other results
6 | 0.7 |  |  |  |  | COc1ccc(Cl)c(Nc2c(C#N)cnc3c2C=C2N=CN=C2C3)c1 [Example 40, 8-(2-Chloro-5-methoxy-phenylamino)imidazo[4,5-g]quinoline-7-carbonitrile] | 10 | inhibition at 10 µM [1]: 0%
7 | 0.004 | 0.006 | 0.9 | 0.037 | 0.053 | COc1cc2cc3c(Nc4ccc(Sc5nccn5C)c(Cl)c4)c(C#N)cnc3cc2cc1OCCN1CCOCC1 [Example 149, 4-[3-Chloro-4-(1-methyl-1H-imidazol-2-ylsulfanyl)phenylamino]-7-methoxy-8-(2-morpholin-4-yl-ethoxy)benzo[g]quinoline-3-carbonitrile] |  | 
8 | 0.007 | 0.0085 | 0.7 | 0.04 | 0.012 | COc1cc2cc3c(Nc4ccc(Sc5nccn5C)c(Cl)c4)c(C#N)cnc3cc2cc1OCCCN1CCOCC1 [Example 151, 4-[3-Chloro-4-(1-methyl-1H-imidazol-2-ylsulfanyl)phenylamino]-7-methoxy-8-(3-morpholin-4-yl-propoxy)benzo[g]quinoline-3-carbonitrile] |  | 
9 | 0.008 | 0.029 | > 1 | 0.04 | 0.032 | COc1cc2cc3c(Nc4ccc(Sc5nccn5C)c(Cl)c4)c(C#N)cnc3cc2cc1OCCN1CCN(C)CC1 [Example 152] |  | 
10 | 0.012 | 0.0094 | > 1 | 0.038 | 0.019 | COc1cc2cc3c(Nc4ccc(Sc5nccn5C)c(Cl)c4)c(C#N)cnc3cc2cc1OCCn1nccn1 [Example 153, 4-[3-chloro-4-(1-methyl-1H-imidazol-2-ylsulfanyl)phenylamino]-7-methoxy-8-(2-[1,2,3]triazol-2-yl-ethoxy)benzo[g]quinoline-3-carbonitrile] |  | 
11 | 0.008 | 0.043 | > 1 | 0.04 |  | COc1cc2cc3c(Nc4ccc(Sc5nccn5C)c(Cl)c4)c(C#N)cnc3cc2cc1OCCn1ccnn1 [Example 154, 4-[3-Chloro-4-(1-methyl-1H-imidazol-2-ylsulfanyl)phenylamino]-7-methoxy-8-(2-[1,2,3]triazol-1-yl-ethoxy)benzo[g]quinoline-3-carbonitrile] |  | 
